{"source": "patent US12194084B2", "about": "(priority 2019, dated 2025)", "tested_on": "CD1b-restricted MA-specific TCR transgenic DN1 T cells", "assay_type": "cell-based, mouse"}
{"substance": "mycolic acid [MA]", "values": [{"measurement": "IFN-γ production by DN1 T cells to MA-pulsed DC (ELISPOT)", "value": "produced IFN-γ"}, {"measurement": "activation of DN1 T cells (CD69, CD25, IFN-γ)", "value": "able to activate DN1 T cells"}]}
